9 compounds from patent publication US20250018046A1, “COMPOUNDS FOR TARGETING DEGRADATION OF IRAK4 PROTEINS” (BIOGEN MA INC, priority 2021, published 2025) can be followed below.

The structures appear in SMILES notation.

The target in this experiment is T1, IRAK4 (Homo sapiens, UniProt Q9NWZ3).
T1 construct: knocking-in a HiBiT fusion tag into the C-terminal of the IRAK4 gene in 293T cells; host or cells: 293T cells, knock-in of HiBiT at the endogenous IRAK4 locus
T1 sequence (Q9NWZ3 1-460): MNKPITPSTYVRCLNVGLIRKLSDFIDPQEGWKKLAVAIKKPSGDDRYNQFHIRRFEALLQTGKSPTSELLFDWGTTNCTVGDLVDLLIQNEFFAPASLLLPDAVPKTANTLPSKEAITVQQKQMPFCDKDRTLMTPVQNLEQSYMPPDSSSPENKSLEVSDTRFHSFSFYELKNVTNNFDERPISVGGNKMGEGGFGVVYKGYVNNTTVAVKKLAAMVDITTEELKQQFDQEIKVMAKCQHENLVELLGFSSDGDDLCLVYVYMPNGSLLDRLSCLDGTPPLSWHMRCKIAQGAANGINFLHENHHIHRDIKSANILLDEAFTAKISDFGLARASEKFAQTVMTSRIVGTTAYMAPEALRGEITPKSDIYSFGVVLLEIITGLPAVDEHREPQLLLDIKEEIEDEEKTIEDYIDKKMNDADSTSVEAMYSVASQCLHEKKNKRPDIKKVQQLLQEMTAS
Kind of experiment: IRAK4 degradation assay using the HiBiT Method. The settings on record: 293T cells expressing HiBiT-tagged IRAK4; 6-hour incubation; Nano-Glo HiBiT Lytic Assay luminescence. The format is cell-based. How it is done: Selected compounds were tested in an IRAK4 degradation assay using the HiBiT Method.
Phenol red-free Dulbecco's modified Eagle medium (DMEM) and fetal bovine serum (FBS) were purchased from Gibco (Grand Island, NY, USA). The Nano-Glo© HiBiT Lytic Assay System was purchased from Promega (Madison, WI, USA). Cell culture flasks and 384-well microplates were acquired from VWR (Radnor, PA, USA). The 293T cell line was engineered by knocking-in a HiBiT fusion tag into the C-terminal of the IRAK4 gene in 293T cells (Synthego, Redwood City, CA, USA).
IRAK4 degradation was measured via the quantification of luminescent signals using the Nano-Glo© HiBiT Lytic Assay kit. Test compounds were added to 384-well plates in duplicate using an 11-point half-log dilution series, with the highest dose set at 10 mM. 293T cells expressing HiBiT-tagged IRAK4 were then added into 384-well plates at a cell density of 10,000 cells per well. The plates were kept at 37° C. with 5% CO2 for 6 hours. Cells that were treated only with DMSO served as the negative control; wells that contained only assay media served as the background control. After the 6-hour incubation, Nano-Glo® HiBiT Lytic Assay reagents were added to the cells. Luminescence was acquired using an EnVision® Multilabel Reader (PerkinElmer, Santa Clara, CA, USA).
In general terms: The HiBiT peptide binds its large partner to form an active luciferase.
For the compound `CC(C)Oc1cc2nc(C3CCN(CCCCCCc4ccc(NC5CCC(=O)NC5=O)cc4)CC3)cn2cc1NC(=O)c1cccc(C(F)(F)F)n1` (stereo not drawn) [Example 70, N-[2-[1-[6-[4-[(2,6-dioxo-3-piperidyl)amino]phenyl]hexyl]-4-piperidyl]-7-isopropoxy-imidazo[1,2-a]pyridin-6-yl]-6-(trifluoromethyl)pyridine-2-carboxamide], the DC50 (usually the concentration giving 50% degradation) was 100 to 500 nM.
`CC(C)Oc1cc2nc(C3CCN(CC(=O)N4CCC(c5ccc(OC6CCC(=O)NC6=O)cc5)CC4)CC3)cn2cc1NC(=O)c1cccc(C(F)(F)F)n1` (stereo not drawn) [Example 21, N-[2-[1-[2-[4-[4-[(2,6-dioxo-3-piperidyl)oxy]phenyl]-1-piperidyl]-2-oxo-ethyl]-4-piperidyl]-7-isopropoxy-imidazo[1,2-a]pyridin-6-yl]-6-(trifluoromethyl)pyridine-2-carboxamide]: the half-maximal degradation concentration (DC50) was 10 to 100 nM.
`CC(C)Oc1cc2nc(C3CCN(CCc4ccc(NC5CCC(=O)NC5=O)cc4)CC3)cn2cc1NC(=O)c1cccc(C(F)(F)F)n1` (stereo not drawn) [Example 68, N-[2-[1-[2-[4-[(2,6-dioxo-3-piperidyl)amino]phenyl]ethyl]-4-piperidyl]-7-isopropoxy-imidazo[1,2-a]pyridin-6-yl]-6-(trifluoromethyl)pyridine-2-carboxamide]: the DC50 was in the range of 10 to 100 nM.
In turn, `CC(C)Oc1cc2nc([C@H]3CC[C@H](CN(C)C4CCN(c5cccc(C6CCC(=O)NC6=O)c5)CC4)CC3)cn2cc1NC(=O)c1cccc(C(F)(F)F)n1` (stereo partly drawn) [Example 43, N-[2-[4-[[[1-[3-(2,6-dioxo-3-piperidyl)phenyl]-4-piperidyl]-methyl-amino]methyl]cyclohexyl]-7-isopropoxy-imidazo[1,2-a]pyridin-6-yl]-6-(trifluoromethyl)pyridine-2-carboxamide] registered a DC50 of 100 to 500 nM.
Regarding `CC(C)Oc1cc2nc(CCCCCCN3CCC(c4ccc(NC5CCC(=O)NC5=O)cc4)CC3)cn2cc1NC(=O)c1cccc(C(F)(F)F)n1` (stereo not drawn) [Example 72, N-[2-[6-[4-[4-[(2,6-dioxo-3-piperidyl)amino]phenyl]-1-piperidyl]hexyl]-7-isopropoxy-imidazo[1,2-a]pyridin-6-yl]-6-(trifluoromethyl)pyridine-2-carboxamide], the DC50 lay within 100 to 500 nM.
`CC(C)Oc1cc2nc(C3CCN(CC(=O)N4CCC(c5ccc(NC6CCC(=O)NC6=O)cc5)CC4)CC3)cn2cc1NC(=O)c1ccccn1` (stereo not drawn) [Example 55, N-[2-[1-[2-[4-[4-[(2,6-dioxo-3-piperidyl)amino]phenyl]-1-piperidyl]-2-oxo-ethyl]-4-piperidyl]-7-isopropoxy-imidazo[1,2-a]pyridin-6-yl]pyridine-2-carboxamide] yielded a DC50 of 10 to 100 nM.
In the case of `CC(C)Oc1cc2nc(C3CN(C(=O)CN4CCC(c5ccc(C6CCC(=O)NC6=O)cc5)CC4)C3)cn2cc1NC(=O)c1cccc(C(F)(F)F)n1` (stereo not drawn) [Example 77, N-[2-[1-[2-[4-[4-(2,6-dioxo-3-piperidyl)phenyl]-1-piperidyl]acetyl]azetidin-3-yl]-7-isopropoxy-imidazo[1,2-a]pyridin-6-yl]-6-(trifluoromethyl)pyridine-2-carboxamide] it was 100 to 500 nM; in that of `CC(C)Oc1cc2nc(C3CCN(CC(=O)N4CCN(c5ccc6c(N7CCC(=O)NC7=O)nn(C)c6c5)CC4)CC3)cn2cc1NC(=O)c1cccc(C(F)(F)F)n1` [Example 26, N-[2-[1-[2-[4-[3-(2,4-dioxohexahydropyrimidin-1-yl)-1-methyl-indazol-6-yl]piperazin-1-yl]-2-oxo-ethyl]-4-piperidyl]-7-isopropoxy-imidazo[1,2-a]pyridin-6-yl]-6-(trifluoromethyl)pyridine-2-carboxamide], 100 to 500 nM.
Compound `CC(C)Oc1cc2nc([C@H]3CC[C@H](CN4CCC(c5cccc6c5n(C)c(=O)n6C5CCC(=O)NC5=O)CC4)CC3)cn2cc1NC(=O)c1cccc(C(F)(F)F)n1` (stereo partly drawn) [Example 37, N-[2-[4-[[4-[1-(2,6-dioxo-3-piperidyl)-3-methyl-2-oxo-benzimidazol-4-yl]-1-piperidyl]methyl]cyclohexyl]-7-isopropoxy-imidazo[1,2-a]pyridin-6-yl]-6-(trifluoromethyl)pyridine-2-carboxamide] had a DC50 of 10 to 100 nM.
